Laboratory results: patent publication US12491251B2, “Degraders of cyclin-dependent kinase 7 (CDK7) and uses thereof” (DANA-FARBER CANCER INSTITUTE, INC., priority 2019, dated 2025)

Experiments:
CDK7 [1] = target: T1, CDK7 (Homo sapiens, UniProt P50613); experiment: CDK7 degradation in Jurkat cells by immunoblot; assay type: cell-based; settings: 1 μM compound, 6 hours, vs DMSO
T1 construct: endogenous in cells; host or cells: Jurkat cells
Procedure: (§1) Jurkat cells were treated with DMSO or 1 μM of compounds 1-26 for 6 hours. Cells were then lysed in radioimmunoprecipitation assay (RIPA) buffer (Sigma® Life Science) containing protease/phosphatase inhibitor cocktail (Roche). The protein concentrations were measured by bicinchoninic acid assay (BCA) analysis (Pierce™). Equal amounts of protein were resolved by 4-12% Tris-Base gels (Invitrogen™), and then transferred to the immunoblot polyvinylidene difluoride (PVDF) membrane (BioRad), and immunoblotted with primary antibodies against CDK7 (cell signaling) and glyceraldehyde 3-phosphate dehydrogenase (GAPDH) (Cell Signaling Technology®), and then immunoblotted with IRDye®800-labeled goat anti-rabbit immunoglobulin G (IgG) and IRDye®680-labeled goat anti-mouse IgG (LI-COR®) secondary antibodies. The membranes were detected on an Odyssey® CLx system.

CDK7 [2] = target: T1, CDK7; experiment: Rescue of compound-induced CDK7 degradation in Jurkat cells (ligand and proteasome dependence), immunoblot; assay type: cell-based; settings: for dependence of the induced CDK7 degradation: Jurkat cells, 1 μM compound for 4 h after 2 h pretreatment with competitor or pathway inhibitor; for rescue of the CDK7 degradation induced by bispecific compound 3 / rescue of the CDK7 degradation induced by bispecific compound 20: Jurkat cells pretreated 2 h (10 μM YKL-5-124, 10 μM DGY-05-180, 0.2 μM Bortezomib, 1 μM MLN4924); for rescue of the CDK7 degradation induced by bispecific compound 3: then 1 μM compound 3 for 4 h; for rescue of the CDK7 degradation induced by bispecific compound 20: then 1 μM compound 20 for 4 h
Procedure: as §1
Jurkat cells were pretreated with 10 μM YKL-5-124 (the parental compound and known CDK7 inhibitor), 10 μM DGY-05-180 (VHL ligand), 0.2 μM Bortezomib (a proteasome inhibitor available from, e.g., Millipore Sigma, Cat. No. 179324-69-7, Burlington, MA), and 1 μM MLN4924 (a neddylation inhibitor available from, e.g., MedChemExpress (MCE®), Cat. No. HY-70062, Monmouth Junction, NJ), for 2 h, and then treated with 1 μM compound 3 or 20 for 4 h. Cells were lysed and immunoblotted as described in Example 27 with antibodies to CDK7 and GAPDH. The structures of YKL-5-124, DGY-05-180, Bortezomib and MLN4924 are set forth below.

T1 sequence (P50613 2-346 limits assumed): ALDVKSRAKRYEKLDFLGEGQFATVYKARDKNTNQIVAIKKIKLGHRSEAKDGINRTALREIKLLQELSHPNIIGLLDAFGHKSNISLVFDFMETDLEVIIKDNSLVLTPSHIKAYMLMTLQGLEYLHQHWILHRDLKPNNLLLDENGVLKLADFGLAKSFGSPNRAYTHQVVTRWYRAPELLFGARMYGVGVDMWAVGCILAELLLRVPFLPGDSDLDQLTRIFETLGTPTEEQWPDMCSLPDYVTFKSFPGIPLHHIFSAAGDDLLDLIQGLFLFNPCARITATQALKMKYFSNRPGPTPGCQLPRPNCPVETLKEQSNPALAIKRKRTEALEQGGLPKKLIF
T1 sequence (P51946 whole entry partner): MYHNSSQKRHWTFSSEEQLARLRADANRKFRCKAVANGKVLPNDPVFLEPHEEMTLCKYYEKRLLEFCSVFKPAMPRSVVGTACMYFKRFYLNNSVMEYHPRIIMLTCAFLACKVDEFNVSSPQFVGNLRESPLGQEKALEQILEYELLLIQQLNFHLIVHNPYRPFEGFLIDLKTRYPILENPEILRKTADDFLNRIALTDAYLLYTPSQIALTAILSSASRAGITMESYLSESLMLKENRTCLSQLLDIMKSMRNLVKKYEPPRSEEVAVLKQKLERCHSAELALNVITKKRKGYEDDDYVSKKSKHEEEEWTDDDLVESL
T1 sequence (P51948 whole entry partner): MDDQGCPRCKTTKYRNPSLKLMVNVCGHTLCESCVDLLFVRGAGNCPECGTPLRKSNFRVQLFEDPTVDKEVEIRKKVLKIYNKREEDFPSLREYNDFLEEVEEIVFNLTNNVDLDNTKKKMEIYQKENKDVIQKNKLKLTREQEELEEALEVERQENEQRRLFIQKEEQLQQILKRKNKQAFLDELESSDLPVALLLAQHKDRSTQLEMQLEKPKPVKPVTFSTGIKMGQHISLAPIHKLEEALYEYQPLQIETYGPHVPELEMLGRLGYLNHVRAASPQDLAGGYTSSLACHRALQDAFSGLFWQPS

Cc1ncsc1-c1ccc([C@H](C)NC(=O)[C@@H]2C[C@@H](O)CN2C(=O)[C@@H](NC(=O)CCCNC(=O)c2ccc(C(=O)Nc3n[nH]c4c3CN(C(=O)N[C@H](CN(C)C)c3ccccc3)C4(C)C)cc2)C(C)(C)C)cc1 [Compound 3, N1-(5-(((S)-2-(dimethylamino)-1-phenylethyl)carbamoyl)-6,6-dimethyl-1,4,5,6-tetrahydropyrrolo[3,4-c]pyrazol-3-yl)-N4-(4-(((S)-1-((2S,4R)-4-hydroxy-2-(((S)-1-(4-(4-methylthiazol-5-yl)phenyl)ethyl)carbamoyl)pyrrolidin-1-yl)-3,3-dimethyl-1-oxobutan-2-yl)amino)-4-oxobutyl)terephthalamide]
degradation of CDK7 (immunoblot) (CDK7 [1]): induced the degradation of CDK7
dependence of the induced CDK7 degradation (CDK7 [2]): both ligand- and proteasome-dependent

NS(=O)(=O)OC[C@@H]1C[C@@H](n2ccc3c(N[C@H]4CCc5ccccc54)ncnc32)C[C@@H]1O [MLN4924]
rescue of the CDK7 degradation induced by bispecific compound 3 (CDK7 [2]): rescued the CDK7 degradation
rescue of the CDK7 degradation induced by bispecific compound 20 (CDK7 [2]): rescued the CDK7 degradation

Cc1ncsc1-c1ccc([C@H](C)NC(=O)[C@@H]2C[C@@H](O)CN2C(=O)[C@@H](NC(=O)CCCCNC(=O)c2ccc(C(=O)Nc3n[nH]c4c3CN(C(=O)N[C@H](CN(C)C)c3ccccc3)C4(C)C)cc2)C(C)(C)C)cc1 [Compound 20, N^1-(5-(((S)-2-(dimethylamino)-1-phenylethyl)carbamoyl)-6,6-dimethyl-1,4,5,6-tetrahydropyrrolo[3,4-c]pyrazol-3-yl)-N^4-(5-(((S)-1-((2S,4R)-4-hydroxy-2-(((S)-1-(4-(4-methylthiazol-5-yl)phenyl)ethyl)carbamoyl)pyrrolidin-1-yl)-3,3-dimethyl-1-oxobutan-2-yl)amino)-5-oxopentyl)terephthalamide]
degradation of CDK7 (immunoblot) (CDK7 [1]): induced the degradation of CDK7
dependence of the induced CDK7 degradation (CDK7 [2]): both ligand- and proteasome-dependent

C=CC(=O)Nc1ccc(C(=O)Nc2n[nH]c3c2CN(C(=O)N[C@H](CN(C)C)c2ccccc2)C3(C)C)cc1 [YKL-5-124]
rescue of the CDK7 degradation induced by bispecific compound 3 (CDK7 [2]): rescued the CDK7 degradation
rescue of the CDK7 degradation induced by bispecific compound 20 (CDK7 [2]): rescued the CDK7 degradation

CC(C)C[C@H](NC(=O)[C@H](Cc1ccccc1)NC(=O)c1cnccn1)B(O)O [Bortezomib]
rescue of the CDK7 degradation induced by bispecific compound 3 (CDK7 [2]): rescued the CDK7 degradation
rescue of the CDK7 degradation induced by bispecific compound 20 (CDK7 [2]): rescued the CDK7 degradation
